# How the values were obtained:
# [1] = tested on: human neuroblastoma cell line overexpressing full-length human Tau carrying the P301L mutation; assay: Reduction of intracellular Tau aggregation (AlphaLISA); format: cell-based; conditions: compound at 5 μM, 24 h; aggregated Tau normalized to total Tau, relative to DMSO-treated cells
# Method: A human neuroblastoma cell line overexpressing the full-length form of human Tau carrying the P301 L mutation was cultured in complete medium [DMEM-F12 4.5 g/L Glutamax (Invitrogen), 15% FBS (Biochrom), 1% Peni/Strep (Invitrogen) supplemented with 2.5 μg/ml of G418 (Sigma-Aldrich) selection antibiotic]. The day before the experiment 5×10^5 cells/well were plated in a 6 well plate in 3 mL of complete medium. The next day, cells were incubated with DMSO or a compound of the present invention at 5 μM for additional 24 h at 37° C. […]
# Phosphorylated, aggregated, and total Tau were quantified by AlphaLisa using the following antibody pairs: • HT7-Acceptor beads+biotin (BT)-Tau13-Donor beads: Total Tau • HT7-Acceptor beads+biotin (BT)-HT7-Donor beads: Aggregated human Tau […]
# After incubation of this mixture at room temperature for 1 h, 25 μL of Streptavidin Donor beads (Perkin Elmer) at 25 μg/mL were added in the dark. Plates were analyzed after 30 min incubation using the EnSpire Alpha instrument and EnSpire Workstation version 3.00. Data for aggregated Tau were normalized to total Tau and then expressed as percentage of the DMSO-treated cells.
# [2] = molecular target: T1, Tau K18 fragment aggregates (amino acids 244 to 372 of human Tau441) (Homo sapiens, UniProt P10636); assay: Tau K18 disaggregation assay by ThT; format: biochemical; conditions: 2 μM K18 aggregates, compounds 160 to 0.04 μM, 30 min RT, ThT fluorescence
# T1 construct: encompassing amino acids 244 to 372 of the longest isoform (2N4R) of human Tau441; host or cells: bacteria
# T1 sequence (P10636 561-689): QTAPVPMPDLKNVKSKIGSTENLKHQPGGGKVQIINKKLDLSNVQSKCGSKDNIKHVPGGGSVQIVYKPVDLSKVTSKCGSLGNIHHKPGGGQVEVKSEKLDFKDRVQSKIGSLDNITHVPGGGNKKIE
# Method: Compounds were dissolved in anhydrous dimethyl sulfoxide (DMSO, Sigma-Aldrich) to reach a concentration of 10 mM. K18 aggregates and serial dilutions of compounds were mixed together in PBS (volume 50 μL) to a final concentration of 2 μM of K18 aggregates and from 160 to 0.04 μM of compounds. The mixture was incubated for 30 minutes at room temperature (RT), then 40 μL of this mixture were transferred into a black 384-well plate assay (Perkin-Elmer) and mixed with 10 μL of 100 μM ThT in 250 mM glycine (both from Sigma-Aldrich) in PBS. Fluorescence (relative fluorescence units; RFU) was measured in monoplicate or duplicate on a Tecan reader (excitation: 440 nm; emission: 485 nm). Percentage of K18 disaggregation was then calculated and half maximal effective concentration (EC50) was determined using GraphPad Prism version 5 (GraphPad Software) assuming a one-binding site fitting model.
SMILES,% Reduction of intracellular Tau aggregation [1],EC50 [2] [µM]
c1ccc2c3c([nH]c2c1)CN(c1ccc(N2CCOCC2)nc1)CC3 [Example 44],+++ (+++ % >50),
Fc1ccc2[nH]c3c(c2c1)CC1CCC3N1c1ccc(N2CCOCC2)cn1 (centres unmarked) [Example 47],,10 to 25

# Reference: patent publication US20230255976A1, “Novel Compounds for the Treatment, Alleviation or Prevention of Disorders Associated with Tau Aggregates” (AC Immune SA, priority 2018, published 2023)
